# Reference: patent US12480137B2, “Plants having increased tolerance to herbicides” (BASF SE, priority 2014, dated 2025)
# What was measured:
# Format in all cases: in vivo, Arabidopsis thaliana
# [1] = tested on: Arabidopsis mutant line Cesa1_G1009D; assay: Growth inhibition of Arabidopsis lines in 48-well plates, tolerance factor from IC50; settings: growth inhibition seven to ten days after seeding
# Description: (§1) For selection of cellulose biosynthesis inhibitor resistant plants EMS mutagenized seed populations of Arabidopsis thaliana are used. EMS mutagenized seed populations are either bought from Lehle Seeds (1102 South Industrial Blvd. Suite D, Round Rock, Texas USA) or are generated as described elsewhere (Heim D R, et. al. (1989) Plant Physiol. 90: 146-150). Causative mutations in CESA wildtype sequences (e.g. SEQ ID NO: 1 or 3) are identified as described by Scheible W R et. al. (2001, Proc. Natl. Acad. of Sci. 98: 10079-10084), McCourt et. al. (WO2013/142968) or with the use of next generation sequencing methods as described by Austin R S, et. al. (2011) Plant Journal 67: 715-725.
# (§2) Selected Arabidopsis thaliana lines were assayed for improved resistance to azines like 6-cyclopentyl-N4-(2,3,4,5,6-pentafluorophenyl)-1,3,5-triazine-2,4-diamine; 6-(1-fluoro-1-methyl-ethyl)-N4-(2,3,4,5,6-pentafluorophenyl)-1,3,5-triazine-2,4-diamine; 6-cyclohexyl-N2-(2,3,4,5,6-pentafluorophenyl)-1,3,5-triazine-2,4-diamine; 6-(2,6-difluorophenyl)-N2-(2,3,5,6-tetrafluorophenyl)-1,3,5-triazine-2,4-diamine; N2-(4-chloro-3,5,6-trifluoro-2-pyridyl)-6-(1-fluoro-1-methyl-ethyl)-1,3,5-triazine-2,4-diamine in 48-well plates. Therefore, M2 or M3 seeds are surface sterilized by stirring for 5 min in ethanol+water (70+30 by volume), rinsing one time with ethanol+water (70+30 by volume) and two times with sterile, deionized water. The seeds are resuspended in 0.1% agar dissolved in water (w/v) Four to five seeds per well are plated on solid nutrient medium consisting of half-strength murashige skoog nutrient solution, pH 5.8 (Murashige and Skoog (1962) Physiologia Plantarum 15: 473-497). Compounds are dissolved in dimethylsulfoxid (DMSO) and added to the medium prior solidification (final DMSO concentration 0.1%). Multi well plates are incubated in a growth chamber at 22° C., 75% relative humidity and 110 μmol Phot*m^−2*s^−1 with 14:10 h light:dark photoperiod. Growth inhibition is evaluated seven to ten days after seeding in comparison to wild type plants. Tolerance factors are calculated based on IC50 values of growth inhibition of transformed versus non-transformed Arabidopsis plants (Table 3).
# [2] = tested on: Arabidopsis mutant line Cesa1_G1013R; assay: as above; settings: growth inhibition seven to ten days after seeding
# Description: as §1, §2
# [3] = tested on: Arabidopsis mutant line Cesa1_P1010L; assay: as above; settings: growth inhibition seven to ten days after seeding
# Description: as §1, §2
# [4] = tested on: Arabidopsis mutant line Cesa3_S1037F; assay: as above; settings: growth inhibition seven to ten days after seeding
# Description: as §1, §2
# [5] = tested on: Arabidopsis mutant line Cesa3_S1040L; assay: as above; settings: growth inhibition seven to ten days after seeding
# Description: as §1, §2
# [6] = tested on: Arabidopsis mutant line Cesa3_S983F; assay: as above; settings: growth inhibition seven to ten days after seeding
# Description: as §1, §2
# [7] = tested on: wildtype Arabidopsis plants; assay: as above; settings: growth inhibition seven to ten days after seeding
# Description: as §1, §2
# [8] = tested on: Cesa1_G1013R, fpx2-1 mutant line; assay: Greenhouse phytotox, pre-emergent treatment
# Method in brief: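 Tolerance to cellulose biosynthesis inhibitors is assessed on M2 or M3 generation Arabidopsis grown in a greenhouse. Example inhibitors are fluorinated N4-aryl triazine-2,4-diamines, including N4-(4-bromo-2,3,5,6-tetrafluoro-phenyl)-6-(1-fluoro-1-methyl-ethyl)-1,3,5-triazine-2,4-diamine.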
# [9] = tested on: Cesa3_S983F, fpx1-3 mutant line; assay: Greenhouse phytotox, pre-emergent treatment
# Method in brief: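 First, M2 or M3 Arabidopsis plants are grown under greenhouse conditions. Next, they are treated with a cellulose biosynthesis-inhibiting triazine-2,4-diamine herbicide, e.g. N4-(4-chloro-3,5,6-trifluoro-2-pyridyl)-6-(1-fluoro-1-methyl-ethyl)-1,3,5-triazine-2,4-diamine. Finally, improved herbicide tolerance is evaluated.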
smiles,measurement,setting,value
"Nc1nc(Nc2c(F)c(F)c(F)c(F)c2F)nc(C2CCCC2)n1 [6-cyclopentyl-N4-(2,3,4,5,6-pentafluorophenyl)-1,3,5-triazine-2,4-diamine]",Relative tolerance rate (wildtype = 1.0),[1],3
same,Relative tolerance rate (wildtype = 1.0),[2],25
same,Relative tolerance rate (wildtype = 1.0),[3],3
same,Relative tolerance rate (wildtype = 1.0),[4],75
same,Relative tolerance rate (wildtype = 1.0),[5],56
same,Relative tolerance rate (wildtype = 1.0),[6],75
same,Relative tolerance rate (wildtype = 1.0),[7],1
same,Phytotox value on a scale from 0-100 (100 is 100% damage),[8]; 0.25 g ai/ha,5
same,Phytotox value on a scale from 0-100 (100 is 100% damage),[8]; 0.98 g ai/ha,15
same,Phytotox value on a scale from 0-100 (100 is 100% damage),[8]; 3.91 g ai/ha,25
same,Phytotox value on a scale from 0-100 (100 is 100% damage),[8]; 15.63 g ai/ha,15
same,Phytotox value on a scale from 0-100 (100 is 100% damage),[9]; 0.25 g ai/ha,0
same,Phytotox value on a scale from 0-100 (100 is 100% damage),[9]; 0.98 g ai/ha,5
same,Phytotox value on a scale from 0-100 (100 is 100% damage),[9]; 3.91 g ai/ha,20
same,Phytotox value on a scale from 0-100 (100 is 100% damage),[9]; 15.63 g ai/ha,40
